Assay results from the NIST ThermoML archive (doi:10.1016/j.jct.2017.06.001).
Numbers after ± are expanded uncertainties.

Experiment: xn = mol fraction of the nth substance listed
Settings: 100 kPa, Liquid; for speed of sound: Frequency=5 MHz, Pulse-echo method; for mass density: Vibrating tube method

OCCCCCO [1,5-pentanediol] + O
Settings | mass density [kg/m3] | speed of sound [m/s]
288.15 K, x1 = 0.005 | 998.88 ± 0.53 | –
288.15 K, x1 = 0.0101 | 999.03 ± 1 | –
288.15 K, x1 = 0.0196 | 999.79 ± 1 | –
288.15 K, x1 = 0.0251 | 1000.47 ± 1 | –
288.15 K, x1 = 0.0304 | 1001.25 ± 1 | –
288.15 K, x1 = 0.05 | 1003.56 ± 1 | –
288.15 K, x1 = 0.0769 | 1005.76 ± 1.1 | –
288.15 K, x1 = 0.1002 | 1007.25 ± 1.1 | –
288.15 K, x1 = 0.1438 | 1008.43 ± 1.1 | –
288.15 K, x1 = 0.1845 | 1008.63 ± 1.1 | –
288.15 K, x1 = 0.206 | – | 1706.1 ± 1.3
288.15 K, x1 = 0.2108 | – | 1706.3 ± 1.3
288.15 K, x1 = 0.2162 | – | 1706.4 ± 1.3
288.15 K, x1 = 0.2177 | – | 1706.4 ± 1.3
288.15 K, x1 = 0.2203 | – | 1706.5 ± 1.3
288.15 K, x1 = 0.2319 | – | 1706.5 ± 1.3
288.15 K, x1 = 0.2402 | – | 1706.4 ± 1.3
288.15 K, x1 = 0.25 | – | 1706.2 ± 1.3
288.15 K, x1 = 0.2503 | 1007.9 ± 1.2 | –
288.15 K, x1 = 0.2599 | – | 1706 ± 1.4
288.15 K, x1 = 0.2695 | – | 1705.6 ± 1.4
288.15 K, x1 = 0.283 | – | 1705 ± 1.4
288.15 K, x1 = 0.3 | 1006.94 ± 1.2 | –
288.15 K, x1 = 0.3004 | – | 1704.1 ± 1.4
288.15 K, x1 = 0.3171 | – | 1703 ± 1.4
288.15 K, x1 = 0.3343 | 1006.2 ± 1.3 | –
288.15 K, x1 = 0.3398 | – | 1701.4 ± 1.4
288.15 K, x1 = 0.3601 | – | 1699.8 ± 1.4
288.15 K, x1 = 0.3882 | – | 1697.2 ± 1.5
288.15 K, x1 = 0.4171 | 1004.47 ± 1.4 | –
288.15 K, x1 = 0.4185 | – | 1694.2 ± 1.5
288.15 K, x1 = 0.4484 | – | 1690.8 ± 1.6
288.15 K, x1 = 0.454 | 1003.59 ± 1.4 | –
288.15 K, x1 = 0.4755 | – | 1687.5 ± 1.6
288.15 K, x1 = 0.4893 | – | 1685.8 ± 1.6
288.15 K, x1 = 0.5003 | 1002.5 ± 1.5 | –
288.15 K, x1 = 0.508 | – | 1683.4 ± 1.6
288.15 K, x1 = 0.5305 | – | 1680.3 ± 1.6
288.15 K, x1 = 0.5362 | 1001.6 ± 1.5 | –
288.15 K, x1 = 0.5516 | – | 1677.4 ± 1.7
288.15 K, x1 = 0.5741 | – | 1674.2 ± 1.7
288.15 K, x1 = 0.5932 | – | 1671.5 ± 1.7
288.15 K, x1 = 0.6177 | 999.9 ± 1.7 | –
288.15 K, x1 = 0.6187 | – | 1667.9 ± 1.8
288.15 K, x1 = 0.6383 | – | 1665 ± 1.8
288.15 K, x1 = 0.6478 | 999.3 ± 1.7 | –
288.15 K, x1 = 0.6592 | – | 1662.1 ± 1.8
288.15 K, x1 = 0.6819 | – | 1658.9 ± 1.8
288.15 K, x1 = 0.7025 | 998.2 ± 1.8 | –
288.15 K, x1 = 0.7043 | – | 1655.7 ± 1.9
288.15 K, x1 = 0.7236 | – | 1653.1 ± 1.9
288.15 K, x1 = 0.7443 | – | 1650.3 ± 1.9
288.15 K, x1 = 0.7504 | 997.4 ± 1.9 | –
288.15 K, x1 = 0.7647 | – | 1647.6 ± 2
288.15 K, x1 = 0.7836 | – | 1645.2 ± 2
288.15 K, x1 = 0.7927 | 996.5 ± 2 | –
288.15 K, x1 = 0.8018 | – | 1642.8 ± 2
288.15 K, x1 = 0.8231 | – | 1640.1 ± 2
288.15 K, x1 = 0.8417 | – | 1637.8 ± 2.1
288.15 K, x1 = 0.8605 | 995.2 ± 2.1 | –
288.15 K, x1 = 0.8609 | – | 1635.4 ± 2.1
288.15 K, x1 = 0.8783 | – | 1633.2 ± 2.1
288.15 K, x1 = 0.8967 | – | 1630.9 ± 2.1
288.15 K, x1 = 0.9004 | 994.4 ± 2.2 | –
288.15 K, x1 = 0.9133 | – | 1628.7 ± 2.2
288.15 K, x1 = 0.9388 | – | 1625.3 ± 2.2
288.15 K, x1 = 0.9496 | 993.3 ± 2.3 | –
288.15 K, x1 = 0.9515 | – | 1623.6 ± 2.2
288.15 K, x1 = 0.9651 | – | 1621.7 ± 2.3
288.15 K, x1 = 0.9837 | – | 1618.9 ± 2.3
288.15 K, x1 = 1 | 992.2 ± 2.1 | 1616.4 ± 2.3
293.15 K, x1 = 0.0002 | – | 1483 ± 1.1
293.15 K, x1 = 0.0004 | – | 1483.8 ± 1.1
293.15 K, x1 = 0.0005 | – | 1484.4 ± 1.1
293.15 K, x1 = 0.0008 | – | 1485.6 ± 1.1
293.15 K, x1 = 0.0012 | – | 1487 ± 1.1
293.15 K, x1 = 0.0017 | – | 1489 ± 1.1
293.15 K, x1 = 0.0021 | – | 1490.8 ± 1.1
293.15 K, x1 = 0.0029 | – | 1493.7 ± 1.1
293.15 K, x1 = 0.0037 | – | 1496.8 ± 1.1
293.15 K, x1 = 0.0043 | – | 1499.2 ± 1.1
293.15 K, x1 = 0.005 | – | 1501.8 ± 1.1
293.15 K, x1 = 0.0057 | – | 1504.5 ± 1.1
293.15 K, x1 = 0.0064 | – | 1506.9 ± 1.1
293.15 K, x1 = 0.0071 | – | 1509.3 ± 1.1
293.15 K, x1 = 0.0078 | – | 1511.9 ± 1.1
293.15 K, x1 = 0.0085 | – | 1514.3 ± 1.2
293.15 K, x1 = 0.0091 | – | 1516.7 ± 1.2
293.15 K, x1 = 0.0098 | – | 1519 ± 1.2
293.15 K, x1 = 0.0107 | – | 1522 ± 1.2
293.15 K, x1 = 0.0113 | – | 1524.2 ± 1.2
293.15 K, x1 = 0.012 | – | 1526.6 ± 1.2
293.15 K, x1 = 0.0128 | – | 1529.1 ± 1.2
293.15 K, x1 = 0.0136 | – | 1531.6 ± 1.2
293.15 K, x1 = 0.0143 | – | 1534 ± 1.2
293.15 K, x1 = 0.015 | – | 1536.2 ± 1.2
293.15 K, x1 = 0.0158 | – | 1538.5 ± 1.2
293.15 K, x1 = 0.0165 | – | 1540.7 ± 1.2
293.15 K, x1 = 0.0172 | – | 1543 ± 1.2
293.15 K, x1 = 0.018 | – | 1545.3 ± 1.2
293.15 K, x1 = 0.0189 | – | 1547.8 ± 1.2
293.15 K, x1 = 0.0198 | – | 1550.5 ± 1.2
293.15 K, x1 = 0.0206 | – | 1552.8 ± 1.2
293.15 K, x1 = 0.0214 | – | 1555.3 ± 1.2
293.15 K, x1 = 0.0224 | – | 1557.8 ± 1.2
293.15 K, x1 = 0.0232 | – | 1560.2 ± 1.2
293.15 K, x1 = 0.0241 | – | 1562.7 ± 1.2
293.15 K, x1 = 0.0254 | – | 1566 ± 1.2
293.15 K, x1 = 0.0263 | – | 1568.5 ± 1.2
293.15 K, x1 = 0.0276 | – | 1571.6 ± 1.2
293.15 K, x1 = 0.0285 | – | 1573.9 ± 1.2
293.15 K, x1 = 0.0294 | – | 1576.1 ± 1.2
293.15 K, x1 = 0.0302 | – | 1578.2 ± 1.2
293.15 K, x1 = 0.0314 | – | 1580.8 ± 1.2
293.15 K, x1 = 0.0323 | – | 1583.1 ± 1.2
293.15 K, x1 = 0.0333 | – | 1585.3 ± 1.2
293.15 K, x1 = 0.0343 | – | 1587.6 ± 1.2
293.15 K, x1 = 0.0355 | – | 1590.1 ± 1.2
293.15 K, x1 = 0.0368 | – | 1592.9 ± 1.2
293.15 K, x1 = 0.0383 | – | 1596.3 ± 1.2
293.15 K, x1 = 0.0398 | – | 1599.2 ± 1.2
293.15 K, x1 = 0.0408 | – | 1601.4 ± 1.2
293.15 K, x1 = 0.0418 | – | 1603.3 ± 1.2
293.15 K, x1 = 0.0435 | – | 1606.5 ± 1.2
293.15 K, x1 = 0.0451 | – | 1609.5 ± 1.2
293.15 K, x1 = 0.0472 | – | 1613.3 ± 1.2
293.15 K, x1 = 0.0491 | – | 1616.6 ± 1.2
293.15 K, x1 = 0.0506 | – | 1619.2 ± 1.2
293.15 K, x1 = 0.0528 | – | 1622.7 ± 1.2
293.15 K, x1 = 0.0552 | – | 1626.4 ± 1.2
293.15 K, x1 = 0.0569 | – | 1629 ± 1.2
293.15 K, x1 = 0.0599 | – | 1633.3 ± 1.2
293.15 K, x1 = 0.0612 | – | 1635.1 ± 1.2
293.15 K, x1 = 0.0629 | – | 1637.4 ± 1.2
293.15 K, x1 = 0.0645 | – | 1639.4 ± 1.2
293.15 K, x1 = 0.0665 | – | 1641.9 ± 1.2
293.15 K, x1 = 0.0684 | – | 1644.3 ± 1.2
293.15 K, x1 = 0.0711 | – | 1647.4 ± 1.2
293.15 K, x1 = 0.0738 | – | 1650.3 ± 1.2
293.15 K, x1 = 0.077 | – | 1653.6 ± 1.2
293.15 K, x1 = 0.08 | – | 1656.5 ± 1.2
293.15 K, x1 = 0.0837 | – | 1659.9 ± 1.2
293.15 K, x1 = 0.0871 | – | 1662.8 ± 1.2
293.15 K, x1 = 0.0895 | – | 1664.7 ± 1.2
293.15 K, x1 = 0.0944 | – | 1668.3 ± 1.2
293.15 K, x1 = 0.0974 | – | 1670.4 ± 1.2
293.15 K, x1 = 0.1023 | – | 1673.5 ± 1.2
293.15 K, x1 = 0.1068 | – | 1676.1 ± 1.2
293.15 K, x1 = 0.1108 | – | 1678.1 ± 1.2
293.15 K, x1 = 0.1168 | – | 1680.9 ± 1.2
293.15 K, x1 = 0.121 | – | 1682.7 ± 1.2
293.15 K, x1 = 0.1249 | – | 1684.1 ± 1.2
293.15 K, x1 = 0.1295 | – | 1685.7 ± 1.2
293.15 K, x1 = 0.1356 | – | 1687.5 ± 1.2
293.15 K, x1 = 0.1401 | – | 1688.7 ± 1.3
293.15 K, x1 = 0.1445 | – | 1689.8 ± 1.3
293.15 K, x1 = 0.1521 | – | 1691.3 ± 1.3
